{
  "source": "ChEMBL document CHEMBL1221220",
  "about": "“Transport and signaling via the amino acid binding site of the yeast Gap1 amino acid transceptor” (Nat Chem Biol, 2009)",
  "key": {"[1]": {"test_system": "T1, General amino-acid permease GAP1 (Saccharomyces cerevisiae), P19145 [A396C]", "T1 sequence (whole entry)": "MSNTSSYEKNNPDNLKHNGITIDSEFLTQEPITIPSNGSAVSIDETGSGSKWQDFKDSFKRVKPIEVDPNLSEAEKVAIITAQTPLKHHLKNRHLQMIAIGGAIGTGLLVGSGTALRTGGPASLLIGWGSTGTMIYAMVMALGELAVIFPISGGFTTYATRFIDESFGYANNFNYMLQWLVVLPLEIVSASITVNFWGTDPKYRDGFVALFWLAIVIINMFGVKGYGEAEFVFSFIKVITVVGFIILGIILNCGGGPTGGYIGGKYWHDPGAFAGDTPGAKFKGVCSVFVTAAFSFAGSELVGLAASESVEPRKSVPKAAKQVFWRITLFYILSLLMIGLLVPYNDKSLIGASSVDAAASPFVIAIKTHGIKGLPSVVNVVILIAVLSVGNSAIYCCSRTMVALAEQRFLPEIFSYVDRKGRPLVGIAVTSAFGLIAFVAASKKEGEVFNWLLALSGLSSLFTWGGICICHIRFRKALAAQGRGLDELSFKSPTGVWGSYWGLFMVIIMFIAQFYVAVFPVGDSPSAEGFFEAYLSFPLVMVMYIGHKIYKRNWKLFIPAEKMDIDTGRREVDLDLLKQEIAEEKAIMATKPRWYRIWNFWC", "test": "Induction of yeast Gap1 A396C mutant-mediated amino acid uptake at 2 mM in presence of 10 mM MTSEA treated before compound addition"}, "[2]": {"test_system": "T2, General amino-acid permease GAP1 (Saccharomyces cerevisiae), P19145 [A403C]", "T2 sequence (whole entry)": "T1 sequence (whole entry) with C396A, A403C", "test": "Induction of yeast Gap1 A403C mutant-mediated […] activation at 2 mM in presence of 10 mM MTSEA treated before compound addition"}, "[3]": {"test_system": "T3, General amino-acid permease GAP1 (Saccharomyces cerevisiae), P19145 [C397C]", "T3 sequence (whole entry)": "T1 sequence (whole entry) with C396A", "test": "Activation of yeast Gap1 C397C mutant-mediated amino acid uptake at 10 mM"}, "[4]": {"test_system": "T4, General amino-acid permease GAP1 (Saccharomyces cerevisiae), P19145 [I384C]", "T4 sequence (whole entry)": "T1 sequence (whole entry) with I384C, C396A", "test": "Induction of yeast Gap1 I384C mutant-mediated trehalose activation at 10 mM"}, "[5]": {"test_system": "T2, General amino-acid permease GAP1 (Saccharomyces cerevisiae), P19145 [A403C]", "test": "Activation of yeast Gap1 A403C mutant-mediated amino acid uptake at 10 mM"}, "[6]": {"test_system": "T2, General amino-acid permease GAP1 (Saccharomyces cerevisiae), P19145 [A403C]", "test": "Induction of yeast Gap1 A403C mutant-mediated amino acid uptake at 2 mM in presence of 10 mM MTSEA treated before compound addition"}},
  "note": "Changes are numbered by the printed parent chain. Active and inactive are the calls of the source. The rule behind the calls is not given here.",
  "data": [
    {"smiles": "NC(=O)NCCC[C@H](N)C(=O)O", "values": [
      {"measurement": "Activity", "setting": "[1]", "value": "Active"},
      {"measurement": "inhibition", "setting": "[2]", "value": "Active"},
      {"measurement": "Activity", "setting": "[3]", "value": "inactive"},
      {"measurement": "Activity", "setting": "[4]", "value": "inactive"},
      {"measurement": "Activity", "setting": "[5]", "value": "inactive"},
      {"measurement": "Activity", "setting": "[6]", "value": "Active"}
    ]}
  ]
}
